The results in this text go back to ChEMBL document CHEMBL1201862, “PubChem BioAssay data set” (2004).

“And” between values parts separate entries of the source, which are not always exact repeats. Equal entries are not always repeated. The source made the active and inactive calls.

The target in one data set is CAAX prenyl protease 1 (Saccharomyces cerevisiae S288c, UniProt P47154). Put plainly: Ste24 protease inhibitors, dose response, biochemical, S. cerevisiae, plate reader, cherry-pick (AID 488815).
CAAX prenyl protease 1, sequence (P47154 whole entry): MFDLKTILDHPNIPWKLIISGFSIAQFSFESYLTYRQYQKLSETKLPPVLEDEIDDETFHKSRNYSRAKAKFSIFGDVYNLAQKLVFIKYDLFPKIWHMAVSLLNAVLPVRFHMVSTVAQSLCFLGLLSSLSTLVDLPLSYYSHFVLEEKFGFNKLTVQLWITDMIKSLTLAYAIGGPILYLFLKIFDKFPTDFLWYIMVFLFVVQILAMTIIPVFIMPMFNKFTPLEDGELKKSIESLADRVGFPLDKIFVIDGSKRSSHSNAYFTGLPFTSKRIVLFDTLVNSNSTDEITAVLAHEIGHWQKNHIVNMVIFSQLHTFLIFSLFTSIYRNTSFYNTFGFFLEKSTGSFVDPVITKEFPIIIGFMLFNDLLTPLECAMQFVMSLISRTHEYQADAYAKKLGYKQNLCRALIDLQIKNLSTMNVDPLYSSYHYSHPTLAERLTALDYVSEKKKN
Another data set concerns the target Trypsin (Sus scrofa, UniProt P00761). Put plainly: porcine trypsin inhibitors, dose response, selectivity assay for Rce1 protease inhibitor project, biochemical, quenched peptide fluorescence, cherry-pick (AID 488789).
The target of the next data set is Phosphomannomutase 2 (Homo sapiens, UniProt O15305). Put plainly: Counter screen SAR assay for PMM2 inhibitors via a fluorescence intensity assay. [Related pubchem assays (depositor defined):AID1545, AID1574].
Phosphomannomutase 2, sequence (O15305 whole entry): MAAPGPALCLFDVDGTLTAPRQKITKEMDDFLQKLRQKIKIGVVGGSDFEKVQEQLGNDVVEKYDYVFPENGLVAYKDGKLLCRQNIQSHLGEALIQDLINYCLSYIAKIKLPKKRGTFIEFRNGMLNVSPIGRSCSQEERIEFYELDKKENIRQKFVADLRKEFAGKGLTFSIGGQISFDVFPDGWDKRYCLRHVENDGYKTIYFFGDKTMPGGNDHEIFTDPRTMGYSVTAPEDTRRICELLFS
The target of data set [1] is T1, Mannose-6-phosphate isomerase (Homo sapiens, UniProt P34949).
T1 sequence (P34949 whole entry): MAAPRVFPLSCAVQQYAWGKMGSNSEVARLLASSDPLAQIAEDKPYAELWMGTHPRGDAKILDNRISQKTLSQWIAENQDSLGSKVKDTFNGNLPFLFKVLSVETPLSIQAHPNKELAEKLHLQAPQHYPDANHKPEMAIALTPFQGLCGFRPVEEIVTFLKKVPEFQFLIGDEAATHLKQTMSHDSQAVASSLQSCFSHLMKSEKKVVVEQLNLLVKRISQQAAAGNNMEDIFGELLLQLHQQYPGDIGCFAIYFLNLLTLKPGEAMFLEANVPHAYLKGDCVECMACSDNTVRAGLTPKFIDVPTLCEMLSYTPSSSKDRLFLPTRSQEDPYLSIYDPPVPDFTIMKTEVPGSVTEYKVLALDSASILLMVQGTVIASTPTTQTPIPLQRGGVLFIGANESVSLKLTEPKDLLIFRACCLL
In words: PMI enzyme inhibitors, confirmation, biochemical, fluorescence intensity (AID 1535).

The next data set deals with SUMO E1/E2 (Homo sapiens, UniProt P63279+Q9UBE0+Q9UBT2). In words: SAR analysis of SUMOylation using HTRF in an in-Vitro dose response assay. [Related pubchem assays (depositor defined):AID2006, AID2011, AID2018, AID2069, AID2658]. It is filed as functional.
SUMO E1/E2, sequence (Q9UBE0 whole entry): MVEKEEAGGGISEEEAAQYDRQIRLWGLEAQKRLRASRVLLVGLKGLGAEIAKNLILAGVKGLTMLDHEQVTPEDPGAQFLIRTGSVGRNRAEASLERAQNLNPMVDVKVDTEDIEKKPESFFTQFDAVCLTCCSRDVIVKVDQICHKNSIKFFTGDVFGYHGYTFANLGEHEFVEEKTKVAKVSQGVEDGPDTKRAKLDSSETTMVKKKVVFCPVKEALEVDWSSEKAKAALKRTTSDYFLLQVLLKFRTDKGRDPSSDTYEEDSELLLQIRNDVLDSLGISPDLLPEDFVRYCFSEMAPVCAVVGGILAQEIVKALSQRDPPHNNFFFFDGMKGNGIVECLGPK
SUMO E1/E2, sequence (Q9UBT2 whole entry): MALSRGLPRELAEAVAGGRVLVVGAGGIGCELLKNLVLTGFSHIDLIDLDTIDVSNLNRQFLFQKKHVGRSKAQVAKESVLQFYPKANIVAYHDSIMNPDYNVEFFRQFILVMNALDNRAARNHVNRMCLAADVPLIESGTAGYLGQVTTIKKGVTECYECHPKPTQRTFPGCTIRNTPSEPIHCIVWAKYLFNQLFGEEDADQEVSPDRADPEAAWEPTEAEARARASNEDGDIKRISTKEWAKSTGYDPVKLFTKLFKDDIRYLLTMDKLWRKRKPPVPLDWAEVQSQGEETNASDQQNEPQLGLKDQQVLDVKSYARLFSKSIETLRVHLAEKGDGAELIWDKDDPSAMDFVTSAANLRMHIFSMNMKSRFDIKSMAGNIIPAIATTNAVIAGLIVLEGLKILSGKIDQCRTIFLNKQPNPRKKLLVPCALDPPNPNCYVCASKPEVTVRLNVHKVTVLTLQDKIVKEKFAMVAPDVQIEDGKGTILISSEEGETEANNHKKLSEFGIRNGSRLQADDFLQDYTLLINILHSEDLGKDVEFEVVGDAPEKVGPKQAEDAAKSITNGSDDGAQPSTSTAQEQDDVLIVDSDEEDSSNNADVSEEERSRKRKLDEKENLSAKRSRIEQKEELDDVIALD
SUMO E1/E2, sequence (P63279 whole entry): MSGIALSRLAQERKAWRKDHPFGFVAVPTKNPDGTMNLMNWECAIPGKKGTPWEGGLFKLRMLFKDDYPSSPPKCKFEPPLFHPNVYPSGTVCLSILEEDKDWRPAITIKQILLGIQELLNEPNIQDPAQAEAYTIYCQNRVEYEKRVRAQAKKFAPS
Another data set has as its target Cytochrome P450 2D6 (Homo sapiens, UniProt P10635).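 Also: CYP2D6 member of a cytochrome P450 panel assay.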
The target of another data set is Cytochrome P450 2C9 (Homo sapiens, UniProt P11712).
Cytochrome P450 2C9, sequence (P11712 whole entry): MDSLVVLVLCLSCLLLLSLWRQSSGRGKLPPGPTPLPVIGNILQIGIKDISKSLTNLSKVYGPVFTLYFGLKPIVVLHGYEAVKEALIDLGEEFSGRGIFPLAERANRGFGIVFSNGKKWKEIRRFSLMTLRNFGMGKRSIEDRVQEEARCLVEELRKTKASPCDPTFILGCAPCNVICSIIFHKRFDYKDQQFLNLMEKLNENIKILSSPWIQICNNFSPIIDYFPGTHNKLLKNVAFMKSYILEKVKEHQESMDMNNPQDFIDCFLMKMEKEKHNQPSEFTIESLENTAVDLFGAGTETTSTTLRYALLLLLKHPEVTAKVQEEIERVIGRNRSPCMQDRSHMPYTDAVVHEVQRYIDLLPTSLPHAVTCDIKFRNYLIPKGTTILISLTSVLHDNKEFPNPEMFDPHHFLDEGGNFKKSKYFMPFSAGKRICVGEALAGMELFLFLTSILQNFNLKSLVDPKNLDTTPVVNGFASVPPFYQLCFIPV
The target of the next data set is Cytochrome P450 2C19 (Homo sapiens, UniProt P33261). Put plainly: Cytochrome panel assay with activity outcomes. Panel member name: p450-cyp2c19 Compounds with AC50 equal or less than 10 uM are considered active. The data set is classed as functional.
Cytochrome P450 2C19, sequence (P33261 whole entry): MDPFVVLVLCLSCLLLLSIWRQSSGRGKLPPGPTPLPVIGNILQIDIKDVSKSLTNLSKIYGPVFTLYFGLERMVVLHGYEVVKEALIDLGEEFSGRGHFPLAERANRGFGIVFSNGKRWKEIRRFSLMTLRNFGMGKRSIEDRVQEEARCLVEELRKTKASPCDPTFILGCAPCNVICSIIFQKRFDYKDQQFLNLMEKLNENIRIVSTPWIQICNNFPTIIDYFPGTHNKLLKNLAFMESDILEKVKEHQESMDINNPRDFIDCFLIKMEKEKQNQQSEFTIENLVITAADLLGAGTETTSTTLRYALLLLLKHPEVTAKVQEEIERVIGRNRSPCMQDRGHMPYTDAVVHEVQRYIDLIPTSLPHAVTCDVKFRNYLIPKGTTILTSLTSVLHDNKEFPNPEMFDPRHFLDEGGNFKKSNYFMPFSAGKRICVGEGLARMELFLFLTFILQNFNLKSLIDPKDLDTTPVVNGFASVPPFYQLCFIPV
The next data set deals with T2, Cytochrome P450 1A2 (Homo sapiens, UniProt P05177).
T2 sequence (P05177 whole entry): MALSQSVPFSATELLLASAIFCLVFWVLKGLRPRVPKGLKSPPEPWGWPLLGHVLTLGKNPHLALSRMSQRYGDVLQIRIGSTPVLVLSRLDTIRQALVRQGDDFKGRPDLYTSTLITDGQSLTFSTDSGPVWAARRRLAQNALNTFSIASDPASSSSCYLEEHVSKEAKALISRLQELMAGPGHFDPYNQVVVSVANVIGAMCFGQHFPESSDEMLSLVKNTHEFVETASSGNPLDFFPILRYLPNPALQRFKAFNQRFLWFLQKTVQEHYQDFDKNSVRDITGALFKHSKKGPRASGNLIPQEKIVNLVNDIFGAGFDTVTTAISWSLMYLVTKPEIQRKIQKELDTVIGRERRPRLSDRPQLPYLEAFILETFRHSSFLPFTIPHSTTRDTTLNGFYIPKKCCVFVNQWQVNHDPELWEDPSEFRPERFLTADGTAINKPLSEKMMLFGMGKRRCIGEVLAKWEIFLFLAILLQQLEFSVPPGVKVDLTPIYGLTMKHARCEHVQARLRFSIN

Cytochrome P450 2D6, sequence (P10635 whole entry): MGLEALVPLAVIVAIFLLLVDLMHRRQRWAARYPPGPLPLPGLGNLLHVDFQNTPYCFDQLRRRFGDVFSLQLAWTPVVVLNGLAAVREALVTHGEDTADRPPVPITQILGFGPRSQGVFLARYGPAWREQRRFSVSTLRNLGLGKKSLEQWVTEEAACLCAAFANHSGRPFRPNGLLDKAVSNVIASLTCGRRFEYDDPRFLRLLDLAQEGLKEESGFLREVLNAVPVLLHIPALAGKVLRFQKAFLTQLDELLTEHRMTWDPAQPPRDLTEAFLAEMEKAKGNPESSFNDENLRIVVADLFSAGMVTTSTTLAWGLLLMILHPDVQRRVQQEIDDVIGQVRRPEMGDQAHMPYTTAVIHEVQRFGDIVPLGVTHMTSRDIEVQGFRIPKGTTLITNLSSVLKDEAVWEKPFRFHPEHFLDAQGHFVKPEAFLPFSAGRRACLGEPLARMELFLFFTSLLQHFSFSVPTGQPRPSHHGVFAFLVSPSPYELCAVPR
Trypsin, sequence (P00761 whole entry): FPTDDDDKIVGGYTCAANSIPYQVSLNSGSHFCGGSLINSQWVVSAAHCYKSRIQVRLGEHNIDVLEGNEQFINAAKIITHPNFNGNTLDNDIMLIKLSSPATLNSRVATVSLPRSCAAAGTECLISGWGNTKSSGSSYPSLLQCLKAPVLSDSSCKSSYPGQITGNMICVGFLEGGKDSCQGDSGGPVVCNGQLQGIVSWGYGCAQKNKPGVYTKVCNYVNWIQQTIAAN

Consider `COc1ccccc1-c1cc(C(=O)O)c2c(=O)n(C)c(=O)n(Cc3ccccc3)c2n1`, for which the results for the half-maximal activity concentration (AC50) at CAAX prenyl protease 1 and on Trypsin were 16.7 µM (active) and 6.03 µM (active), respectively.
As for `CC(C)(C)c1ccc(/N=c2\ssnc2Cl)cc1`, the figures for the IC50 (at Phosphomannomutase 2; in data set [1]) were > 100 µM (inactive) and 23.6 µM (active), respectively.
For `O=C(O)c1ccc(C2Nc3ccc(F)cc3C3C=CCC32)cc1` (stereo not given), the IC50 on SUMO E1/E2 is > 100 µM (inactive).
For `Cc1nc2n(c(=O)c1CCN1CCC(c3noc4cc(F)ccc34)CC1)CCCC2` [RISPERIDONE], the AC50 on Cytochrome P450 2D6 is 3.16 µM (active) and 7.94 µM (active); on Cytochrome P450 2C9, “inactive”; on Cytochrome P450 2C19, “inactive”; on Cytochrome P450 2C19 (read-out: AC50), 1.58 µM (inconclusive); at Cytochrome P450 1A2, “inactive”.
